From patent US20190365745A1, “USE OF CHRONIC TREATMENT WITH ATR INHIBITORS TO SENSITIZE CANCER CELLS TO PARP INHIBITORS” (Cornell University, priority 2018, published 2019)

What was measured:
Assay type in all cases: cell-based, Human
U2OS cells [1] = assay: Immunoblotting of HR factor abundance; conditions: CHK1 inhibitor 0.2 μM, 5 days
Procedure: FIG. 5A is a schematic diagram of the SILAC/MS experiment. FIG. 5B is a quadrant diagram of the SILAC/MS experiment. Each dot represents a different identified protein. Proteins with abundance reduced two-fold or more after ATRi treatment are shown in the upper-left corner (white quadrant). FIG. 5C is a WB analysis of U2OS cells after 8 days of chronic treatment with 5 μM of ATRi or ATMi. FIG. 5D is a time course WB analysis of U2OS cells during chronic treatment with 5 μM ATRi. FIG. 5E is a WB analysis of U2OS cells at distinct cell cycle stages. Cells were treated with 1 mM hydroxyurea (HU) or 50 ng/ml nocodazole (Noc) for 24 hours. HU treated cells were released for 2.5 hours in HU-free media. FIG. 5F is a WB analysis of U2OS cells untreated or treated for 8 days with 5 μM ATRi.
(§1) Human U2OS, HCT116, hTERT RPE-1, HEK293T, HeLa, U87, T98G, A2780, and human skin fibroblast cells (GM08398 and GM18366) were grown in DMEM media supplemented with 10% bovine calf serum, penicillin/streptomycin and non-essential amino acids. SV40 large T antigen transformed hTERT RPE-1 cells were generated by infecting hTERT RPE-1 cells with a SV40 large T antigen (SV40 LT)-expressing retrovirus and were selected using 500 μg/ml G418. The stable SV40 large T antigen transformed hTERT RPE-1 cell line was then maintained in culture media supplemented 500 μg/ml G418. For chronic treatment with ATR inhibitor (ATRi, VE-821) or ATM inhibitor (ATMi, KU-55933), cells were maintained in media with 5 μM ATR or ATM inhibitor respectively for 8 days before cells were subjected to western blot analysis, proteomic analysis, DR-GFP/EJ5-GFP assay or immunofluorescent staining. For CHK1 inhibitor (UCN-01), cells were treated for 5 days with 0.2 μM of inhibitor before the analysis. Primary human fibroblast cells from control subjects (GM08398) and patients with Seckel syndrome (GM18366, ATR-defective) were obtained from Coriell Institute for Medical Research, Camden, N.J.
(§2) Cells were harvested and lysed in modified radioimmunoprecipitation assay (RIPA) buffer (50 mM Tris-HCl pH 7.5, 150 mM NaCl, 1% tergitol, 0.25% sodium deoxycholate, 5 mM EDTA) supplemented with Complete EDTA-free protease inhibitor cocktail (Roche), 1 mM PMSF, 5 mM sodium fluoride, 10 mM β-glycerol-phosphate and 0.4 mM sodium orthovanadate. Whole cell lysates were cleared with 5 minute centrifugation at 13,000 rpm at 4° C. and mixed with 3×SDS sample buffer (bromophenol blue, stacking gel buffer, 50% glycerol, 3% SDS and 60 mM DTT). After being resolved on SDS-PAGE gels, proteins were then transferred onto polyvinylidene difluoride (PVDF) membranes and detected with designated antibodies.

U2OS cells [2] = assay: Real time PCR of mRNA levels; conditions: ATRi 5 μM 8 days or CHK1i 0.2 μM 5 days, normalized to GAPDH
Text: FIG. 9B is a bar graph showing the analysis of HR-mediated repair using the DR-GFP system. Relative fold change of GFP positive U2OS cells treated with CHK1i compared to DMSO treatment control. (Error bars=SEM, N=4, ****P-value<0.0001; one sample-t-test was used for the statistical analysis). FIGS. 9C-9D show a histogram showing representative FACS data (FIG. 9C) and a bar graph showing quantitation of G1, S and G2/M population for cell cycle analysis of CHK1i treated cells (FIG. 9D) (Error bars=SD, N=3). FIG. 9E are bar graphs showing real time PCR analysis of total RNA extracted from U2OS cells treated with DMSO, ATRi (5 μM for 8 days) or CHK1i (0.2 μM for 5 days). Values were normalized to GAPDH mRNA levels. (Error bars=SD, N=3). FIG. 9F is a schematic diagram showing a proposed model of how E2F transcription is regulated through ATR-CHK1 signaling. […] FIG. 9H is a bar graph showing DR-GFP analysis of 293-T-REX-E2F6 cells after 8 days of treatment with DMSO or doxycycline. (Error bars=SEM, N=4). FIG. 9I is a histogram showing cell cycle analysis of 293-T-REX-E2F6 cells after 8 days of treatment with DMSO or doxycycline. FIG. 9J is a schematic diagram showing a model depicting multiple roles of ATR in the control of HR capacity.
Cells cultured from 10 cm dish were collected and lysed in 1 ml of TRIzol (Invitrogen). Chloroform was added to the lysed sample to separate RNA. Separated RNA was precipitated by isopropyl alcohol, followed by two washes with 75% ethanol. 1 μg of extracted RNA from each sample was then reverse transcribed with Bio-Rad iScript cDNA synthesis kit. The samples (˜100 ng) were analyzed in a Roche 480 light cycler in a total of 15 μl containing SYBR green mix and primers. The values were calculated using “absolute quantification/2nd derivative max” in lightcycler 480 program and then normalized to the level of GAPDH.

HCT116 cells = assay: Western blot after chronic CHK1i; conditions: chronic CHK1 inhibition
Procedure: as §2

U2OS cells [3] = assay: DR-GFP assay of HR-mediated repair
Procedure: as §1
For the DR-GFP assay, cells (U2OS, HCT116, hTERT RPE-1, HEK293T, HeLa, U87, T98G, A2780, 293-T-REX-E2F6 cells and SV40 large T antigen transformed hTERT RPE-1) were transfected with the mCherry plasmid or DR-GFP reporter plasmid (pDR-GFP; addgene plasmid 26475) together with a plasmid coding for I-SceI (pCBASceI; addgene plasmid 26477) or DR-GFP reporter plasmid together with an empty plasmid pCAGGS. Two days after transfection, cells were trypsinized, resuspended in PBS and then analyzed by flow cytometry using FACSAria Fusion or Accuri C6 cytometer (BD). In each experiment, the percentage of GFP-positive cells from the sample transfected with empty plasmid pCAGGS was subtracted from the percentage of GFP-positive cells in the sample transfected with I-SceI. The GFP percentage was then normalized by the mCherry transfection efficiency. Each graph was plotted based on at least 3 independent experiments showing mean±SEM (N≥3). For the EJ5-GFP assay, EJ5-GFP reporter plasmid (pimEJ5GFP, addgene plasmid 44026) was used instead of DR-GFP reporter plasmid and the assay was performed as described for DR-GFP assay.

U2OS cells [4] = assay: Cell cycle analysis (propidium iodide, flow cytometry); conditions: CHK1i 0.2 μM, 5 days
Procedure: Cells were harvested by standard trypsinization and fixed with 70% ethanol. After fixation, cells from each sample were resuspended in PBS, permeabilized using 0.1% Triton X-100 and treated with RNase A (0.8 mg/ml). Then cells were stained with propidium iodide and analyzed by flow cytometry using FACSAria Fusion (BD) or Accuri C6 cytometer (BD) to determine the fraction of cells in different stages of the cell cycle.

Structure (SMILES) | Abundance of BRCA1, RAD51, RRM2 and E2F1 (WB) (U2OS cells [1]) | mRNA levels of BRCA1 and RAD51 (U2OS cells [2]) | Level of E2F1 and abundance of other HR proteins (WB) (HCT116 cells) | HR efficiency (DR-GFP) (U2OS cells [3]; CHK1i 0.2 μM, 5 days) | Relative number of S phase cells (U2OS cells [4]) | HR-mediated repair efficiency (DR-GFP, GFP positive cells over DMSO) (U2OS cells [3]; 5 μM, chronic 8 days)
CN[C@@H]1C[C@H]2O[C@@](C)([C@@H]1OC)n1c3ccccc3c3c4c(c5c6ccccc6n2c5c31)C(=O)N[C@@H]4O [CHK1i, UCN-01] | severely reduced | reduction in the mRNA levels of BRCA1 and RAD51 | did not lower the level of E2F1 nor the abundance of other HR proteins | sharp decrease in HR efficiency | increase in the relative number of S phase cells | 
O=c1cc(-c2cccc3c2Sc2ccccc2S3)oc(N2CCOCC2)c1 [ATMi, KU-55933] |  |  |  |  |  | did not result in major changes in HR-mediated repair efficiency
